Experimental data taken from US20060229308A1, “Substituted pyrirmidin-4-ylamine analogues as vanilloid receptor ligands” (Neurogen Corporation, priority 2003, published 2006).
pIC50: −log10 of the molar value.

Key:
[1] = target: T1, human capsaicin receptor (Homo sapiens, UniProt Q8NER1); test: Calcium mobilization assay, determination of antagonist activity; format: cell-based; settings: 50% decrease in fluorescence response of cells expressing human capsaicin receptor exposed to capsaicin; Example 6
T1 construct: transfected with the pBK-CMV expression construct encoding the full length human capsaicin receptor using standard methods; expressed in transfected cells
Excerpt: This Example illustrates the preparation of VR1-transfected cells and VR1-containing membrane preparations for use in capsaicin binding assays (Example 5).
A cDNA encoding full length human capsaicin receptor (SEQ ID NO:1, 2 or 3 of U.S. Pat. No. 6,482,611) was subcloned in the plasmid pBK-CMV (Stratagene, La Jolla, Calif.) for recombinant expression in mammalian cells.
Human embryonic kidney (HEK293) cells were transfected with the pBK-CMV expression construct encoding the full length human capsaicin receptor using standard methods. The transfected cells were selected for two weeks in media containing G418 (400 μg/ml) to obtain a pool of stably transfected cells. Independent clones were isolated from this pool by limiting dilution to obtain clonal stable cell lines for use in subsequent experiments.
This Example illustrates representative calcium mobilization assays for use in evaluating test compounds for agonist and antagonist activity.
(§1) Cells transfected with expression plasmids (as described in Example 4) and thereby expressing human capsaicin receptor are seeded and grown to 70-90% confluency in FALCON black-walled, clear-bottomed 96-well plates (#3904, BECTON-DICKINSON, Franklin Lakes, N.J.). The culture medium is emptied from the 96 well plates and FLUO-3 AM calcium sensitive dye (Molecular Probes, Eugene, Oreg.) is added to each well (dye solution: 1 mg FLUO-3 AM, 440 μL DMSO and 440 μl 20% pluronic acid in DMSO, diluted 1:250 in Krebs-Ringer HEPES (KRH) buffer (25 mM HEPES, 5 mM KCl, 0.96 mM NaH2PO4, 1 mM MgSO4, 2 mM CaCl2, 5 mM glucose, 1 mM probenecid, pH 7.4), 50 μl diluted solution per well). Plates are covered with aluminum foil and incubated at 37° C. for 1-2 hours in an environment containing 5% CO2. After the incubation, the dye is emptied from the plates, and the cells are washed once with KRH buffer, and resuspended in KRH buffer.
To measure the ability of a test compound to agonize or antagonize a calcium mobilization response in cells expressing capsaicin receptors to capsaicin or other vanilloid agonist, the EC50 of the agonist capsaicin is first determined. An additional 20 μl of KRH buffer and 1 μl DMSO is added to each well of cells, prepared as described above. 100 μl capsaicin in KRH buffer is automatically transferred by the FLIPR instrument to each well. Capsaicin-induced calcium mobilization is monitored using either FLUOROSKAN ASCENT (Labsystems; Franklin, Mass.) or FLIPR (fluorometric imaging plate reader system; Molecular Devices, Sunnyvale, Calif.) instruments. Data obtained between 30 and 60 seconds after agonist application are used to generate an 8-point concentration response curve, with final capsaicin concentrations of 1 nM to 3 μM. […] software (Synergy Software, Reading, Pa.) is used to fit the data to the equation: y=a*(1/(1+(b/x)^c)) to determine the 50% excitatory concentration (EC50) for the response. In this equation, y is the maximum fluorescence signal, x is the concentration of the agonist or antagonist (in this case, capsaicin), a is the Emax, b corresponds to the EC50 value and c is the Hill coefficient. Determination of Agonist Activity
Test compounds are dissolved in DMSO, diluted in 20 μl KRH buffer so that the final concentration of test compounds in the assay well is between 1 μM and 5 μM, and added to cells prepared as described above. The 96 well plates containing prepared cells and test compounds are incubated in the dark, at room temperature for 0.5 to 6 hours. It is important that the incubation not continue beyond 6 hours. Just prior to determining the fluorescence response, 100 μl capsaicin in KRH buffer at twice the EC50 concentration determined as described above is automatically added by the FLIPR instrument to each well of the 96 well plate for a final sample volume of 200 μl and a final capsaicin concentration equal to the EC50. The final concentration of test compounds in the assay wells is between 1 μM and 5 μM.

[2] = target: T1, human capsaicin receptor; test: Calcium mobilization assay, agonist response; format: cell-based; settings: capsaicin positive control, calcium mobilization in cells expressing human capsaicin receptor; read-out: approximate EC90 concentration
Method: as §1, with “Plates are covered with aluminum foil and incubated at 37° C. for 1-2 hours in an environment containing 5% CO2. After the incubation, the dye is emptied from the plates, and the cells are washed once with KRH buffer, and resuspended in KRH buffer.” left out
To measure the ability of a test compound to agonize or antagonize a calcium mobilization response in cells expressing capsaicin receptors to capsaicin or other vanilloid agonist, the EC50 of the agonist capsaicin is first determined. […] Capsaicin-induced calcium mobilization is monitored using either FLUOROSKAN ASCENT (Labsystems; Franklin, Mass.) or FLIPR (fluorometric imaging plate reader system; Molecular Devices, Sunnyvale, Calif.) instruments. […] In this equation, y is the maximum fluorescence signal, x is the concentration of the agonist or antagonist (in this case, capsaicin), a is the Emax, b corresponds to the EC50 value and c is the Hill coefficient. […]

T1 sequence (Q8NER1 whole entry): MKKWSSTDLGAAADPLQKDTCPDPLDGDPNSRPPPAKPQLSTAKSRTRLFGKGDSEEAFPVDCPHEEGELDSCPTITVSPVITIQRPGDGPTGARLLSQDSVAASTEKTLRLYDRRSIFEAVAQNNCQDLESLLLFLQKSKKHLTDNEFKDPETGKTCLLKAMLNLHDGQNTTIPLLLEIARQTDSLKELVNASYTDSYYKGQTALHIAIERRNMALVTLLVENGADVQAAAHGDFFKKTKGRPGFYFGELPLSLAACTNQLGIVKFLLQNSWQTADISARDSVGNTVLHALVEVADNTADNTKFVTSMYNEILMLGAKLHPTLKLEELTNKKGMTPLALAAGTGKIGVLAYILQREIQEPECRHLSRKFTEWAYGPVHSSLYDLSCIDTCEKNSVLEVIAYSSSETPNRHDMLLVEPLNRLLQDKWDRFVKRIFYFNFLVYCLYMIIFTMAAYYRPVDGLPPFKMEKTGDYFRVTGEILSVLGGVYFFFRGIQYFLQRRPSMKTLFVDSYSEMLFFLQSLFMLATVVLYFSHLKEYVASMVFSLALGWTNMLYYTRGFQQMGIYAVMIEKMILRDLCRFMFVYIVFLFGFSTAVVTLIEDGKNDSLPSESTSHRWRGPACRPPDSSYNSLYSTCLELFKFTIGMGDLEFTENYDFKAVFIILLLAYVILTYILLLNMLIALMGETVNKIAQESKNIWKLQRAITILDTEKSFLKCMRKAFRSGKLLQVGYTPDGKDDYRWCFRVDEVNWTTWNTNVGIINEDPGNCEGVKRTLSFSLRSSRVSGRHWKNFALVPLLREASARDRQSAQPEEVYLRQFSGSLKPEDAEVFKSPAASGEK

| pIC50 [1] | EC90 [2] [nM] | Compound |
| --- | --- | --- |
| ≥ 6.00 |  | CC(C)(C)c1ccc(Nc2cc(-c3ccc(Cl)cc3)ncn2)cc1 [Compound 1, (4-tert-Butyl-phenyl)-[6-(4-chloro-phenyl)-pyrimidin-4-yl]-amine] |
| ≥ 6.00 |  | COc1ccccc1-c1cc(Nc2ccc(C(C)(C)C)cc2)ncn1 [Compound 2, (4-tert-Butyl-phenyl)-[6-(2-meth-oxy-phenyl)-pyrimidin-4-yl]-amine] |
| ≥ 6.00 |  | COc1cccc(-c2cc(Nc3ccc(C(C)(C)C)cc3)ncn2)c1 [Compound 3, (4-tert-Butyl-phenyl)-[6-(3-meth-oxy-phenyl)-pyrimidin-4-yl]-amine] |
| ≥ 6.00 |  | COc1ccc(-c2cc(Nc3ccc(C(C)(C)C)cc3)ncn2)cc1 [Compound 4, (4-tert-Butyl-phenyl)-[6-(4-meth-oxy-phenyl)-pyrimidin-4-yl]-amine] |
| ≥ 6.00 |  | CC(C)(C)c1ccc(Nc2cc(-c3cccc(F)c3)ncn2)cc1 [Compound 6, (4-tert-Butyl-phenyl)-[6-(3-fluoro-phenyl)-pyrimidin-4-yl]-amine] |
| ≥ 6.00 |  | Cc1cccc(-c2cc(Nc3ccc(C(C)(C)C)cc3)ncn2)c1 [Compound 7, (4-tert-Butyl-phenyl)-(6-m-tolyl-pyrimidin-4-yl)-amine] |
| ≥ 6.00 |  | CCOc1cccc(-c2cc(Nc3ccc(C(C)(C)C)cc3)ncn2)c1 [Compound 9, (4-tert-Butyl-phenyl)-[6-(3-eth-oxy-phenyl)-pyrimidin-4-yl]-amine] |
| ≥ 6.00 |  | CC(C)(C)c1ccc(Nc2cc(-c3ccccc3)ncn2)cc1 [Compound 20, (4-tert-Butyl-phenyl)-(6-phenyl-pyrimidin-4-yl)-amine] |

The remaining lines, values behind:

| Compound | pIC50 [1] | EC90 [2] [nM] |
| --- | --- | --- |
| CC(C)(C)c1ccc(Nc2cc(-c3ccccc3C(F)(F)F)ncn2)cc1 [Compound 5, (4-tert-Butyl-phenyl)-[6-(2-tri-fluoromethyl-phenyl)-pyri-midin-4-yl]-amine] | ≥ 6.00 |  |
| CC(C)(C)c1ccc(Nc2cc(-c3cccc(OC(F)(F)F)c3)ncn2)cc1 [Compound 8, (4-tert-Butyl-phenyl)-[6-(3-tri-fluoromethoxy-phenyl)-pyri-midin-4-yl]-amine] | ≥ 6.00 |  |
| COc1cccc(-c2ncnc(Nc3ccc(C(C)(C)C)cc3)c2C)c1 [Compound 10, (4-tert-Butyl-phenyl)-[6-(3-meth-oxy-phenyl)-5-methyl-pyrimidin-4-yl]-amine] | ≥ 6.00 |  |
| COc1cccc(-c2nc(COCC(C)C)nc(Nc3ccc(C(C)(C)C)cc3)n2)c1 [Compound 11, (4-tert-Butyl-phenyl)-[4-iso-butoxymethyl-6-(3-meth-oxy-phenyl)-[1,3,5]tri-azin-2-yl]-amine] | ≥ 6.00 |  |
| CCc1c(Nc2ccc(C(C)(C)C)cc2)ncnc1-c1cccc(OC)c1 [Compound 12, (4-tert-Butyl-phenyl)-[5-ethyl-6-(3-meth-oxy-phenyl)-pyrimi-din-4-yl]-amine] | ≥ 6.00 |  |
| CCc1c(Nc2ccc(C(F)(F)F)cc2)ncnc1-c1cccc(OC)c1 [Compound 13, [5-Ethyl-6-(3-methoxy-phenyl)-pyrimidin-4-yl]-(4-tri-fluoromethyl-phenyl)-amine] | ≥ 6.00 |  |
| COc1cccc(-c2nc(C)nc(Nc3ccc(C(C)(C)C)cc3)c2C)c1 [Compound 14, (4-tert-Butyl-phenyl)-[6-(3-meth-oxy-phenyl)-2,5-di-methyl-pyrimidin-4-yl]-amine] | ≥ 6.00 |  |
| COc1cccc(-c2nc(C)nc(Nc3ccc(C(F)(F)F)cc3)c2C)c1 [Compound 15, [6-(3-Methoxy-phenyl)-2,5-di-methyl-pyrimidin-4-yl]-(4-tri-fluoromethyl-phenyl)-amine] | ≥ 6.00 |  |
| COc1cncc(-c2ncnc(Nc3ccc(C(C)(C)C)cc3)c2C)c1 [Compound 16, (4-tert-Butyl-phenyl)-[6-(5-meth-oxy-pyridin-3-yl)-5-meth-yl-pyrimidin-4-yl]-amine] | ≥ 6.00 |  |
| COc1cccc(-c2ncnc(Nc3ccc(C(C)(C)C)cc3)c2N)c1 [Compound 17, N^4-(4-tert-Butyl-phenyl)-6-(3-meth-oxy-phenyl)-pyrimidine-4,5-di-amine] | ≥ 6.00 |  |
| COc1cccc(-c2nc(N3CCOCC3)nc(Nc3ccc(C(F)(F)F)cc3)c2C)c1 [Compound 18, [6-(3-Methoxy-phenyl)-5-meth-yl-2-morpholin-4-yl-pyrimidin-4-yl]-(4-tri-fluoromethyl-phenyl)-amine] | ≥ 6.00 |  |
| COc1cccc(-c2nc(N3CCOCC3)nc(Nc3ccc(C(C)(C)C)cc3)c2C)c1 [Compound 19, (4-tert-Butyl-phenyl)-[6-(3-meth-oxy-phenyl)-5-methyl-2-mor-pholin-4-yl-pyrimidin-4-yl]-amine] | ≥ 6.00 |  |
| COc1ccc(-c2cc(Nc3ccc(C(C)(C)C)cc3)ncn2)cc1OC [Compound 21, (4-tert-Butyl-phenyl)-[6-(3,4-di-methoxy-phenyl)-pyrimidin-4-yl]-amine] | ≥ 6.00 |  |
| COc1cccc(-c2ncnc(Nc3ccc(C(F)(F)F)cc3)c2N)c1 [Compound 23, 6-(3-Methoxy-phenyl)-N^4-(4-tri-fluoromethyl-phenyl)-pyrimi-dine-4,5-diamine] | ≥ 6.00 |  |
| COc1cccc(-c2ncnc(Nc3ccc(C4CCCCC4)cc3)c2N)c1 [Compound 24, N^4-(4-Cyclohexyl-phenyl)-6-(3-meth-oxy-phenyl)-pyrimi-dine-4,5-diamine] | ≥ 6.00 |  |
| COc1cc(CNC(=O)CCCC/C=C/C(C)C)ccc1O [capsaicin] |  | ~100 |
